Source: US11517568B2, “Compounds and methods for treating nematode infections” (The Governing Council of The University of Toronto, priority 2018, dated 2022)

The compounds below were run on wild type fourth-stage C. elegans larvae (L4s) (assay: Locomotory defects (coiled and/or paralysis) in wild type fourth-stage C. elegans larvae on solid substrate). Conditions: 60 μM, after 60 min on solid substrate, L4 C. elegans.
Format: in vivo, Caenorhabditis elegans
Experimental: A preliminary first round of SAR analyses using analogs of exemplary compound Ia was performed and the analogs' ability to induce locomotory defects in wild type fourth-stage C. elegans larvae (L4s) was tested.
If phenotype is observed, a dose-response analysis is performed.
For c1ccc(N2CCN(CC3CCCCC3)CC2)cc1 [Ii], the “Activity (%): percent of animals that show coiled and/or paralysis” value (shortened to “Activity (%): percent”) was 19% +/− 8.1. For N#Cc1ccc(N2CCN(CC3CCCCC3)CC2)cc1 [Ik], the “Activity (%): percent” value was 61% +/− 5.0. With O=[N+]([O-])c1ccc(N2CCN(Cc3ccccc3)CC2)cc1 [Im] the “Activity (%): percent” value was 0.00%. In the case of CC1CCC(N2CCN(c3ccc([N+](=O)[O-])cc3)CC2)CC1 (centres unmarked) [Ib], the “Activity (%): percent” value was 87% +/− 3.7. With O=[N+]([O-])c1ccc(N2CCN(CC3CC3)CC2)cc1 [Iq] the “Activity (%): percent” value was 6% +/− 3.2.

What follows are compounds tested on L3 animals (assay: Abnormal locomotory behaviour of L3 animals on solid agar (extended SAR)). Conditions: 3.75 uM, 1 h exposure, L3, mean of 4 replicates.
Format: in vivo, Caenorhabditis elegans
Experimental: 20 animals were scored after either 1, 6 or 24 hours of exposure to drug (as indicated) per replicate. […] Data are reported as the mean % of animals with abnormal phenotype over 4 independent replicates.
In the case of c1ccc(N2CCN(CC3CCCCC3)CC2)cc1 [Ii], the “% any phene 1 h (conc.) 3.75” value was 16.2%. In the case of N#Cc1ccc(N2CCN(CC3CCCCC3)CC2)cc1 [Ik], the “% any phene 1 h (conc.) 3.75” value was 8.3%. With O=[N+]([O-])c1ccc(N2CCN(Cc3ccccc3)CC2)cc1 [Im] the “% any phene 1 h (conc.) 3.75” value was 0.0%. With O=[N+]([O-])c1ccc(N2CCN(CC3CC3)CC2)cc1 [Iq] the “% any phene 1 h (conc.) 3.75” value was 0.0%.

Same assay, conditions: 3.75 uM, 6 h exposure, L3, mean of 4 replicates
With c1ccc(N2CCN(CC3CCCCC3)CC2)cc1 [Ii] the “% any phene 6 h (conc.) 3.75” value was 0.0%. For N#Cc1ccc(N2CCN(CC3CCCCC3)CC2)cc1 [Ik], the “% any phene 6 h (conc.) 3.75” value was 15.0%. With O=[N+]([O-])c1ccc(N2CCN(Cc3ccccc3)CC2)cc1 [Im] the “% any phene 6 h (conc.) 3.75” value was 0.0%. In the case of O=[N+]([O-])c1ccc(N2CCN(CC3CC3)CC2)cc1 [Iq], the “% any phene 6 h (conc.) 3.75” value was 5.0%.

Same assay, conditions: 3.75 uM, 24 h exposure, L3, mean of 4 replicates
In the case of c1ccc(N2CCN(CC3CCCCC3)CC2)cc1 [Ii], the “% any phene 24 h (conc.) 3.75” value was 0.0%. For N#Cc1ccc(N2CCN(CC3CCCCC3)CC2)cc1 [Ik], the “% any phene 24 h (conc.) 3.75” value was 0.0%. O=[N+]([O-])c1ccc(N2CCN(Cc3ccccc3)CC2)cc1 [Im] was tested, and the “% any phene 24 h (conc.) 3.75” value was 0.0%. For O=[N+]([O-])c1ccc(N2CCN(CC3CC3)CC2)cc1 [Iq], the “% any phene 24 h (conc.) 3.75” value was 0.0%.

Same assay, conditions: 15 uM, 1 h exposure, L3, mean of 4 replicates
For c1ccc(N2CCN(CC3CCCCC3)CC2)cc1 [Ii], the “% any phene 1 h (conc.) 15” value was 39.2%. In the case of N#Cc1ccc(N2CCN(CC3CCCCC3)CC2)cc1 [Ik], the “% any phene 1 h (conc.) 15” value was 45.8%. In the case of O=[N+]([O-])c1ccc(N2CCN(Cc3ccccc3)CC2)cc1 [Im], the “% any phene 1 h (conc.) 15” value was 7.5%. For O=[N+]([O-])c1ccc(N2CCN(CC3CC3)CC2)cc1 [Iq], the “% any phene 1 h (conc.) 15” value was 4.2%.

Same assay, conditions: 15 uM, 6 h exposure, L3, mean of 4 replicates
In the case of c1ccc(N2CCN(CC3CCCCC3)CC2)cc1 [Ii], the “% any phene 6 h (conc.) 15” value was 0.8%. For N#Cc1ccc(N2CCN(CC3CCCCC3)CC2)cc1 [Ik], the “% any phene 6 h (conc.) 15” value was 37.5%. O=[N+]([O-])c1ccc(N2CCN(Cc3ccccc3)CC2)cc1 [Im] was tested, and the “% any phene 6 h (conc.) 15” value was 3.3%. With O=[N+]([O-])c1ccc(N2CCN(CC3CC3)CC2)cc1 [Iq] the “% any phene 6 h (conc.) 15” value was 29.2%.

Same assay, conditions: 15 uM, 24 h exposure, L3, mean of 4 replicates
c1ccc(N2CCN(CC3CCCCC3)CC2)cc1 [Ii] was tested, and the “% any phene 24 h (conc.) 15” value was 0.0%. For N#Cc1ccc(N2CCN(CC3CCCCC3)CC2)cc1 [Ik], the “% any phene 24 h (conc.) 15” value was 23.3%. O=[N+]([O-])c1ccc(N2CCN(Cc3ccccc3)CC2)cc1 [Im] was tested, and the “% any phene 24 h (conc.) 15” value was 0.0%. O=[N+]([O-])c1ccc(N2CCN(CC3CC3)CC2)cc1 [Iq] was tested, and the “% any phene 24 h (conc.) 15” value was 0.0%.

Same assay, conditions: 60 uM, 1 h exposure, L3, mean of 4 replicates
c1ccc(N2CCN(CC3CCCCC3)CC2)cc1 [Ii] was tested, and the “% any phene 1 h (conc.) 60” value was 84.2%. In the case of N#Cc1ccc(N2CCN(CC3CCCCC3)CC2)cc1 [Ik], the “% any phene 1 h (conc.) 60” value was 91.7%. With O=[N+]([O-])c1ccc(N2CCN(Cc3ccccc3)CC2)cc1 [Im] the “% any phene 1 h (conc.) 60” value was 44.2%. O=[N+]([O-])c1ccc(N2CCN(CC3CC3)CC2)cc1 [Iq] was tested, and the “% any phene 1 h (conc.) 60” value was 32.5%.

Same assay, conditions: 60 uM, 6 h exposure, L3, mean of 4 replicates
In the case of c1ccc(N2CCN(CC3CCCCC3)CC2)cc1 [Ii], the “% any phene 6 h (conc.) 60” value was 44.2%. For N#Cc1ccc(N2CCN(CC3CCCCC3)CC2)cc1 [Ik], the “% any phene 6 h (conc.) 60” value was 98.3%. In the case of O=[N+]([O-])c1ccc(N2CCN(Cc3ccccc3)CC2)cc1 [Im], the “% any phene 6 h (conc.) 60” value was 30.8%. O=[N+]([O-])c1ccc(N2CCN(CC3CC3)CC2)cc1 [Iq] was tested, and the “% any phene 6 h (conc.) 60” value was 36.7%.

Same assay, conditions: 60 uM, 24 h exposure, L3, mean of 4 replicates
c1ccc(N2CCN(CC3CCCCC3)CC2)cc1 [Ii] was tested, and the “% any phene 24 h (conc.) 60” value was 20.5%. With N#Cc1ccc(N2CCN(CC3CCCCC3)CC2)cc1 [Ik] the “% any phene 24 h (conc.) 60” value was 100.0%. With O=[N+]([O-])c1ccc(N2CCN(Cc3ccccc3)CC2)cc1 [Im] the “% any phene 24 h (conc.) 60” value was 0.0%. For O=[N+]([O-])c1ccc(N2CCN(CC3CC3)CC2)cc1 [Iq], the “% any phene 24 h (conc.) 60” value was 4.2%.

Same assay, conditions: Caenorhabditis elegans, 1 h, read-out: % any phene 1 h (conc.) 3.75
Work on CC1CCC(N2CCN(c3ccc([N+](=O)[O-])cc3)CC2)CC1 (centres unmarked) [Ib] yielded a pest or weed control at 3.75 µM of 3.3%.

Same assay, conditions: Caenorhabditis elegans, 1 h, read-out: % any phene 1 h (conc.) 15
Compound CC1CCC(N2CCN(c3ccc([N+](=O)[O-])cc3)CC2)CC1 (centres unmarked) [Ib] has a pest or weed control at 15 µM of 97.5%.

Same assay, conditions: Caenorhabditis elegans, 1 h, read-out: % any phene 1 h (conc.) 60
CC1CCC(N2CCN(c3ccc([N+](=O)[O-])cc3)CC2)CC1 (centres unmarked) [Ib] showed a pest or weed control at 60 µM of 100%.

Same assay, conditions: Caenorhabditis elegans, 6 h, read-out: % any phene 6 h (conc.) 3.75
Compound CC1CCC(N2CCN(c3ccc([N+](=O)[O-])cc3)CC2)CC1 (centres unmarked) [Ib] has a pest or weed control at 3.75 µM of 0%.

Same assay, conditions: Caenorhabditis elegans, 6 h, read-out: % any phene 6 h (conc.) 15
CC1CCC(N2CCN(c3ccc([N+](=O)[O-])cc3)CC2)CC1 (centres unmarked) [Ib] was tested, and the pest or weed control at 15 µM was 93.3%.

Same assay, conditions: Caenorhabditis elegans, 6 h, read-out: % any phene 6 h (conc.) 60
Compound CC1CCC(N2CCN(c3ccc([N+](=O)[O-])cc3)CC2)CC1 (centres unmarked) [Ib] has a pest or weed control at 60 µM of 100%.

Same assay, conditions: Caenorhabditis elegans, 24 h, read-out: % any phene 24 h (conc.) 3.75
CC1CCC(N2CCN(c3ccc([N+](=O)[O-])cc3)CC2)CC1 (centres unmarked) [Ib] was tested, and the pest or weed control at 3.75 µM was 0%.

Same assay, conditions: Caenorhabditis elegans, 24 h, read-out: % any phene 24 h (conc.) 15
For CC1CCC(N2CCN(c3ccc([N+](=O)[O-])cc3)CC2)CC1 (centres unmarked) [Ib], the pest or weed control at 15 µM was 73.3%.

Same assay, conditions: Caenorhabditis elegans, 24 h, read-out: % any phene 24 h (conc.) 60
Compound CC1CCC(N2CCN(c3ccc([N+](=O)[O-])cc3)CC2)CC1 (centres unmarked) [Ib] has a pest or weed control at 60 µM of 100%.
